Reference: US5591741A, “Fungicidal spiroheterocyclic derivatives” (American Cyanamid Company, priority 1993, dated 1997)

Experiments:
Botrytis cinerea = test: Direct protectant activity against broad bean grey mould (BCB); format: in vivo; conditions: direct protectant foliar spray, 600 ppm, 4 days
Summary of the method: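 Broad bean plants (cv The Sutton, two leaf pairs) sprayed on upper leaf surfaces at 600 ppm, then inoculated 24 h later with 10^6 conidia/ml. Kept 4 days at 22 °C, high humidity; disease control rated from % leaf area with lesions against untreated or diluent controls.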

Leptosphaeria nodorum = test: Activity against wheat leafspot (LN); format: in vivo; conditions: direct therapeutic foliar spray, 600 ppm, 6-8 days
Summary of the method: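 Wheat cv Norman at single-leaf stage spray-inoculated with 1.5×10^6 conidia/ml, held 24 h at high humidity, then sprayed therapeutically with test compound at 600 ppm. Kept 6-8 days at 22° C, 70% humidity; lesion density per leaf rated against untreated or diluent-sprayed controls.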

[1] = system: Erysiphe graminis f.sp. hordei; test: Direct protectant activity against barley powdery mildew (EGP); format: in vivo; conditions: direct protectant foliar spray, 8 days
Summary of the method: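 Barley seedlings (cv Golden Promise, single-leaf stage) were foliar-sprayed, held 24 h at 18 °C/40% RH, then dusted with mildew conidia. After 8 days at 18 °C/40% RH, sporulating leaf area was scored as a rating against untreated or diluent-sprayed controls.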

Plasmopara viticola = test: Antisporulant activity against vine downy mildew (PVA); format: in vivo; conditions: vine leaves, antisporulant foliar spray, 600 ppm, 750 l/ha
Summary of the method: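 Cabernet Sauvignon vines (~8 cm) inoculated on lower leaf surfaces with 5×10^4 zoosporangia/ml, held 24 h at 21° C high humidity then 24 h glasshouse. Infected leaves sprayed underside with 600 ppm compound in 1:1 water/acetone, 0.04% Tween 20, 750 l/ha; 96 h glasshouse, 24 h humidity. Sporulating leaf area rated versus control.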

Alternaria solani = test: Activity against tomato early blight (AS); format: in vivo; conditions: Table VI; tomato seedlings, contact prophylactic foliar spray, 4 days
Summary of the method: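 Foliar contact prophylactic spray on tomato seedlings (cv Outdoor Girl, second true leaf expanded) in acetone/water 50:50 with 0.04% Tween 20; 24 h at 20° C, 40% R.H., then inoculation with 10^4 spores/ml A. solani conidia. Kept moist at 21° C; lesion cover rated 4 days post-inoculation against untreated or diluent-sprayed controls.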

[2] = system: Erysiphe graminis f.sp. hordei; test: Activity against barley powdery mildew, direct therapeutic (EGT); format: in vivo; conditions: direct therapeutic foliar spray, 600 ppm, up to 7 days
Summary of the method: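 Barley seedlings (cv. Golden Promise, single-leaf stage) were dusted with mildew conidia one day before a therapeutic foliar spray of 600 ppm compound. Plants were kept at 18 °C and 40% humidity for up to 7 days, and sporulating leaf area was rated against untreated or diluent-sprayed controls.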

Phytophthora infestans = format: in vivo; conditions: tomato, direct protectant foliar spray
[3] = system: Pseudocercosporella herpotrichoides; test: Activity against wheat eyespot in-vitro (PHI); format: cell-based; conditions: 10 ppm, 10 days, 20° C., mycelial growth
Summary of the method: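 P. herpotrichoides mycelial fragments (5×10^4/ml) grown in half-strength PDB with compound at 10 ppm final, added from acetone. Incubated 10 days at 20 °C; mycelial growth rated against untreated or diluent controls.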

Pyricularia oryzae = format: in vivo; conditions: rice seedlings, direct therapeutic foliar spray, 600 ppm, 4-5 days
Venturia inaequalis = test: Activity against apple scab in-vitro (VII); format: cell-based; conditions: 10 ppm, 10 days, 20° C., mycelial growth
Summary of the method: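 Compound in acetone was tested at 10 ppm final in half-strength Potato Dextrose Broth inoculated with V. inaequalis mycelial fragments and spores at 5×10^4 propagules/ml. After 10 days at 20° C, mycelial growth was rated against untreated or diluent controls.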

Rhizoctonia solani = test: Activity against Rhizoctonia in-vitro (RSI); format: cell-based; conditions: 10 ppm, 10 days, 20° C., mycelial growth
Summary of the method: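 R. solani mycelial fragments (5×10^4/ml) in half-strength Potato Dextrose Broth with compound added from acetone to 10 ppm final. Mycelial growth assessed after 10 days at 20° C, rated against untreated or diluent control.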

CCCCCCCCNC1COC2(C1)C1CC3CC(C1)CC2C3 (centres unmarked) [Compound 115]
disease control rating BCB (Botrytis cinerea): 0 (less than 50% disease control) | disease control rating LN (Leptosphaeria nodorum): 0 (less than 50% disease control) | disease control rating EGP [1]: 2 (greater than 80% disease control) | disease control rating PVA (Plasmopara viticola): 0 (less than 50% disease control) | disease control rating AS (Alternaria solani): 0 (less than 50% disease control) | disease control rating EGT [2]: 2 (greater than 80% disease control) | disease control rating PIP (Phytophthora infestans): 1 (about 50-80% disease control) | disease control rating PHI [3]: 1 (about 50-80% disease control) | disease control rating PO (Pyricularia oryzae): 0 (less than 50% disease control) | disease control rating VII (Venturia inaequalis): 2 (greater than 80% disease control) | disease control rating RSI (Rhizoctonia solani): 0 (less than 50% disease control)

CC(C)(C)C1CCC2(CC1)CC(N1CCCC3CCCCC31)CO2 (centres unmarked) [Compound 116]
disease control rating BCB (Botrytis cinerea): 1 (about 50-80% disease control) | disease control rating LN (Leptosphaeria nodorum): 0 (less than 50% disease control) | disease control rating EGP [1]: 2 (greater than 80% disease control) | disease control rating PVA (Plasmopara viticola): 0 (less than 50% disease control) | disease control rating AS (Alternaria solani): 0 (less than 50% disease control) | disease control rating EGT [2]: 2 (greater than 80% disease control) | disease control rating PIP (Phytophthora infestans): 0 (less than 50% disease control) | disease control rating PHI [3]: 0 (less than 50% disease control) | disease control rating PO (Pyricularia oryzae): 0 (less than 50% disease control) | disease control rating VII (Venturia inaequalis): 2 (greater than 80% disease control) | disease control rating RSI (Rhizoctonia solani): 0 (less than 50% disease control)

CN(CCC1CCCCC1)C1COC2(CCC(C(C)(C)C)CC2)C1 (centres unmarked) [Compound 117]
disease control rating BCB (Botrytis cinerea): 0 (less than 50% disease control) | disease control rating LN (Leptosphaeria nodorum): 0 (less than 50% disease control) | disease control rating EGP [1]: 2 (greater than 80% disease control) | disease control rating PVA (Plasmopara viticola): 0 (less than 50% disease control) | disease control rating AS (Alternaria solani): 2 (greater than 80% disease control) | disease control rating EGT [2]: 2 (greater than 80% disease control) | disease control rating PIP (Phytophthora infestans): 0 (less than 50% disease control) | disease control rating PHI [3]: 1 (about 50-80% disease control) | disease control rating PO (Pyricularia oryzae): 0 (less than 50% disease control) | disease control rating VII (Venturia inaequalis): 1 (about 50-80% disease control) | disease control rating RSI (Rhizoctonia solani): 1 (about 50-80% disease control)

CCN(CCC1CCCCC1)C1COC2(CCC(C(C)(C)C)CC2)C1 (centres unmarked) [Compound 118]
disease control rating BCB (Botrytis cinerea): 0 (less than 50% disease control) | disease control rating LN (Leptosphaeria nodorum): 0 (less than 50% disease control) | disease control rating EGP [1]: 2 (greater than 80% disease control) | disease control rating PVA (Plasmopara viticola): 2 (greater than 80% disease control) | disease control rating AS (Alternaria solani): 0 (less than 50% disease control) | disease control rating EGT [2]: 2 (greater than 80% disease control) | disease control rating PIP (Phytophthora infestans): 0 (less than 50% disease control) | disease control rating PHI [3]: 1 (about 50-80% disease control) | disease control rating PO (Pyricularia oryzae): 0 (less than 50% disease control) | disease control rating VII (Venturia inaequalis): 1 (about 50-80% disease control) | disease control rating RSI (Rhizoctonia solani): 1 (about 50-80% disease control)

CCCN(CCC1CCCCC1)C1COC2(CCC(C(C)(C)C)CC2)C1 (centres unmarked) [Compound 119]
disease control rating BCB (Botrytis cinerea): 0 (less than 50% disease control) | disease control rating LN (Leptosphaeria nodorum): 0 (less than 50% disease control) | disease control rating EGP [1]: 2 (greater than 80% disease control) | disease control rating PVA (Plasmopara viticola): 0 (less than 50% disease control) | disease control rating AS (Alternaria solani): 0 (less than 50% disease control) | disease control rating EGT [2]: 2 (greater than 80% disease control) | disease control rating PIP (Phytophthora infestans): 0 (less than 50% disease control) | disease control rating PHI [3]: 1 (about 50-80% disease control) | disease control rating PO (Pyricularia oryzae): 0 (less than 50% disease control) | disease control rating VII (Venturia inaequalis): 1 (about 50-80% disease control) | disease control rating RSI (Rhizoctonia solani): 0 (less than 50% disease control)

CC1(CNC2COC3(CCC(C(C)(C)C)CC3)C2)CCCCC1 (centres unmarked) [Compound 120]
disease control rating BCB (Botrytis cinerea): 1 (about 50-80% disease control) | disease control rating LN (Leptosphaeria nodorum): 0 (less than 50% disease control) | disease control rating EGP [1]: 2 (greater than 80% disease control) | disease control rating PVA (Plasmopara viticola): 0 (less than 50% disease control) | disease control rating AS (Alternaria solani): 0 (less than 50% disease control) | disease control rating EGT [2]: 2 (greater than 80% disease control) | disease control rating PIP (Phytophthora infestans): 0 (less than 50% disease control) | disease control rating PHI [3]: 0 (less than 50% disease control) | disease control rating PO (Pyricularia oryzae): 0 (less than 50% disease control) | disease control rating VII (Venturia inaequalis): 1 (about 50-80% disease control) | disease control rating RSI (Rhizoctonia solani): 1 (about 50-80% disease control)

CC(C)CN(C)C1COC2(CCC(C(C)(C)C)CC2)C1 (centres unmarked) [Compound 121]
disease control rating BCB (Botrytis cinerea): 0 (less than 50% disease control) | disease control rating LN (Leptosphaeria nodorum): 0 (less than 50% disease control) | disease control rating EGP [1]: 2 (greater than 80% disease control) | disease control rating PVA (Plasmopara viticola): 0 (less than 50% disease control) | disease control rating AS (Alternaria solani): 0 (less than 50% disease control) | disease control rating EGT [2]: 2 (greater than 80% disease control) | disease control rating PIP (Phytophthora infestans): 0 (less than 50% disease control) | disease control rating PHI [3]: 0 (less than 50% disease control) | disease control rating PO (Pyricularia oryzae): 0 (less than 50% disease control) | disease control rating VII (Venturia inaequalis): 0 (less than 50% disease control) | disease control rating RSI (Rhizoctonia solani): 0 (less than 50% disease control)

CC(C)N(CCC1CCCCC1)C1COC2(CCC(C(C)(C)C)CC2)C1 (centres unmarked) [Compound 122]
disease control rating BCB (Botrytis cinerea): 0 (less than 50% disease control) | disease control rating LN (Leptosphaeria nodorum): 0 (less than 50% disease control) | disease control rating EGP [1]: 2 (greater than 80% disease control) | disease control rating PVA (Plasmopara viticola): 0 (less than 50% disease control) | disease control rating AS (Alternaria solani): 0 (less than 50% disease control) | disease control rating EGT [2]: 2 (greater than 80% disease control) | disease control rating PIP (Phytophthora infestans): 0 (less than 50% disease control) | disease control rating PHI [3]: 0 (less than 50% disease control) | disease control rating PO (Pyricularia oryzae): 2 (greater than 80% disease control) | disease control rating VII (Venturia inaequalis): 0 (less than 50% disease control) | disease control rating RSI (Rhizoctonia solani): 0 (less than 50% disease control)

CCCN(CC(C)C)C1COC2(CCC(C(C)(C)C)CC2)C1 (centres unmarked) [Compound 123]
disease control rating BCB (Botrytis cinerea): 0 (less than 50% disease control) | disease control rating LN (Leptosphaeria nodorum): 0 (less than 50% disease control) | disease control rating EGP [1]: 2 (greater than 80% disease control) | disease control rating PVA (Plasmopara viticola): 0 (less than 50% disease control) | disease control rating AS (Alternaria solani): 0 (less than 50% disease control) | disease control rating EGT [2]: 2 (greater than 80% disease control) | disease control rating PIP (Phytophthora infestans): 0 (less than 50% disease control) | disease control rating PHI [3]: 0 (less than 50% disease control) | disease control rating PO (Pyricularia oryzae): 1 (about 50-80% disease control) | disease control rating VII (Venturia inaequalis): 0 (less than 50% disease control) | disease control rating RSI (Rhizoctonia solani): 0 (less than 50% disease control)

CC(=CC(=O)CC(C)C)NC1COC2(CCC(C(C)(C)C)CC2)C1 (centres unmarked) [Compound 124]
disease control rating BCB (Botrytis cinerea): 0 (less than 50% disease control) | disease control rating LN (Leptosphaeria nodorum): 0 (less than 50% disease control) | disease control rating EGP [1]: 2 (greater than 80% disease control) | disease control rating PVA (Plasmopara viticola): 0 (less than 50% disease control) | disease control rating AS (Alternaria solani): 0 (less than 50% disease control) | disease control rating EGT [2]: 2 (greater than 80% disease control) | disease control rating PIP (Phytophthora infestans): 2 (greater than 80% disease control) | disease control rating PHI [3]: 0 (less than 50% disease control) | disease control rating PO (Pyricularia oryzae): 0 (less than 50% disease control) | disease control rating VII (Venturia inaequalis): 0 (less than 50% disease control) | disease control rating RSI (Rhizoctonia solani): 0 (less than 50% disease control)
